Target: T1, mutant IDE (Gln363Ala) (Homo sapiens, UniProt P14735, Q363A)
T1 construct: made in house; host or cells: E. coli (BL21 inferred, as for the wild type)
T1 sequence (P14735 1-1019 Q363A): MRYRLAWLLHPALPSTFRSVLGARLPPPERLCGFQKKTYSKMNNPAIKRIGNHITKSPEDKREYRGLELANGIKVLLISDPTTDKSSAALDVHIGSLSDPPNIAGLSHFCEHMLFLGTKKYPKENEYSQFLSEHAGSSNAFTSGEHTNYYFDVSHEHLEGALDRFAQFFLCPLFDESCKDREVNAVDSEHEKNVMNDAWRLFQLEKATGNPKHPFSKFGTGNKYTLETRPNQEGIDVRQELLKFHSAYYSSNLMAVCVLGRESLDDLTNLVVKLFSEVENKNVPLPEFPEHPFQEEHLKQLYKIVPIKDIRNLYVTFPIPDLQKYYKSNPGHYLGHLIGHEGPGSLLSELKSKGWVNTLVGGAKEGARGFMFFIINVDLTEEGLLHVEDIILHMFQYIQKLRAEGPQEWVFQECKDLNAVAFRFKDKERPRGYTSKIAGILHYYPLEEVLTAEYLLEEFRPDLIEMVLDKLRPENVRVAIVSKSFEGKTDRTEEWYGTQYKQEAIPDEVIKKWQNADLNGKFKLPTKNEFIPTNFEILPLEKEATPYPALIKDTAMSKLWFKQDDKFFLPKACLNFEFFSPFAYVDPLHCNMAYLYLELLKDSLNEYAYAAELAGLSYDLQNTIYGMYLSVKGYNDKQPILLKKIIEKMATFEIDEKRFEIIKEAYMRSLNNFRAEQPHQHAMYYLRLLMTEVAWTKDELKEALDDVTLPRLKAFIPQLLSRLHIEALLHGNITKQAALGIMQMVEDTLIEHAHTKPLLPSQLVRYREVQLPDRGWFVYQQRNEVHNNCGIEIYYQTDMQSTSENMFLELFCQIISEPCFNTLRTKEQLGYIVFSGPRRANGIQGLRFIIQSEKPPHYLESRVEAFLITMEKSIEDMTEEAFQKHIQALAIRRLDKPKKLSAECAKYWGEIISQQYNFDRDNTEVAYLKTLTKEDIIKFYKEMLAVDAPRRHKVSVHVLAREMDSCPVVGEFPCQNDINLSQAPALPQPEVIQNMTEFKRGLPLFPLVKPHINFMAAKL
Test: FITC-insulin-mAb degradation by mutant IDE (Gln363Ala)
Type: biochemical
Settings: Gln363Ala vs wild type IDE; 20 µM D10
Source text: Since D10 has been found as the strongest activator of IDE towards the proteolysis of insulin, we analyzed the binding site of the compound D10 for the further analysis. According to the computational results, D10 binds to Gln363 at the IDE exosite and His332 (Fig. 1D). We carried out site-directed mutagenesis by replacing these amino acids into Ala in order to verify that D10 indeed binds to this region via these amino acids. We first mutated Gln363 to Ala and then expressed and purified mutant protein through nickel resin. The effect of D10 on the proteolytic activity of mutant IDE (Gln363Ala) was measured towards FITC-insulin-mAb degradation. […] The activation was about 49-fold in the presence of D10 with wild type IDE (Fig. 2B). Although mutant IDE activity was less responsive to D10 compound compared to wild type IDE, it appeared as if D10 were interacting with IDE through […] and could enhance the activity of mutant IDE. […]
The utility of these novel compounds were tested on degradation of insulin by IDE. […] The proteolysis of insulin by IDE was monitored by measuring the changes in fluorescence, where the reaction was carried out with 100 nM of FITC- insulin-mAb and IDE (80 ng) in 100 µl KH2PO4 buffer at a pH of 7.3. […] The increase in fluorescence was monitored by using Fluoroskan Ascent FL microplate reader (Thermo).

SMILES: Cc1nn(-c2ccccc2)c2nc(-c3cccc([N+](=O)[O-])c3)n3c4ccccc4nc3c2c1=O [Compound D10]
- reduction of compound-enhanced activation with mutant IDE: 10 fold
